Experimental data: patent publication US8642540B2 (Zealand Pharma A/S, priority 2008, dated 2014)
Where two headings read alike, the source gives them in different places. Non-standard residues stand in square brackets, D forms with d. Residues, ends and D or L forms follow the SMILES beside them.

Experiments:
[1] = tested on: primary rat adipocyte cultures; type: cell-based; settings: for lipolysis potency relative to OXM / Stimulation of lipolysis EC50: primary rat adipocyte cultures; for Stimulation of lipolysis EC50: 60 min at 37° C., glycerol formed
Protocol: Adipocytes were isolated from epididymal fat dissected from normal young adult Sprague-Dawley rats. The fat lumps were minced, incubated and shaken (220 rpm) with collagenase (1 mg/ml) in Krebs-Ringer buffer containing 4% BSA (KRB-BSA) for 60 minutes at 37° C. The suspension was filtered through a nylon filter (160 μm pore size) and the filtrate centrifuged at 200×g for 3 min. The subjacent medium beneath the upper floating layer of adipocytes was removed with a Pasteur-pipette. The adipocytes were washed 3 times in KRB-BSA buffer by re-suspension and centrifugation. The adipocytes were re-suspended in KRB-BSA, mixed, incubated in and shaken with test compounds in 96-deep well plates (50,000 cells/well) in a total volume of 1 ml at 37° C. for 60 min. The plates were placed on ice for at least 10 min after incubation followed by centrifugation at 200×g for 3 min. 300 μl of the buffer beneath the adipocyte layer were collected in a 96-deep well plate. This process was repeated two more times and the 3 extracts collected from each culture pooled together.

human GLP-1-R = target: T1, human GLP-1-R (Homo sapiens, UniProt P43220); test: GLP-1 receptor efficacy assay (cAMP in HEK293 cells); type: cell-based; settings: HEK293 cells expressing human GLP-1-R, 15 min at 37° C.
T1 construct: expressed in transfected cells
Protocol: (§1) The 5′-end primers additionally encoded a near Kozak consensus sequence to ensure efficient translation.
(§2) 48 hr after transfection cells were seeded for limited dilution cloning and selected with 1 mg/ml G418 in the culture medium.
(§3) On the day of analysis, growth medium was removed and the cells washed once with 200 μl Tyrode buffer. Cells were incubated in 100 μl Tyrode buffer containing increasing concentrations of test peptides, 100 μM IBMX, and 6 mM glucose for 15 min at 37° C. The reaction was stopped by addition of 25 μl 0.5 M HCl and incubated on ice for 60 min. The cAMP content was estimated using the FlashPlate® cAMP kit from Perkin-Elmer.

diet induced obese mice = test: 28 day treatment of diet induced obese (DIO) mice, body weight gain; type: in vivo, mouse; settings: C57Bl/6 male mice on high fat diet, 500 nmol/kg b.i.d. s.c., 28 days
Protocol: Effects of 28 Day Treatment of Diet Induced Obese (DIO) Mice with ZP2495 (SEQ ID NO: 5) on Body Weight Gain Four weeks before drug treatments, C57Bl/6 male mice (7 weeks) (N=10-12 animals in each group) were put on high fat diet (HFD) and their day-night cycle reversed with lights On/Off at 2000/0800 hour. Experimental animals were conditioned to treatment by daily injections (s.c.) of 0.1 ml vehicle and acclimatized to handling by weighing them twice a week one week before start of drug administrations. The day before start of experiment, mice were stratified into groups with similar body weight (BW) and the next day groups of stratified mice were treated (b.i.d.; s.c.) with ZP2495 (SEQ ID NO: 5) (500 nmol/kg) or vehicle. A non-obese control group maintained on regular chow was treated with vehicle in the same treatment regime as the DIO groups. Body weights were recorded daily and used to administer the body weight-corrected doses of peptide throughout the study. Animals were fasted overnight before sacrifice. […] Body weight gains throughout the treatment period were calculated for each animal by subtracting its weight at the initiation of treatment.
The effects of treatment on body weight gain were assessed by 2-way ANOVA with repeated measures and Bonferoni post-hoc analyses were using with GraphPad Prism version 4. […]

human Glucagon-R = target: T2, human Glucagon-R (Homo sapiens, UniProt P47871); test: Glucagon receptor efficacy assay (cAMP in HEK293 cells); type: cell-based; settings: HEK293 cells expressing human Glucagon-R, 15 min at 37° C., read-out: GLUR EC50
T2 construct: expressed in transfected cells
Protocol: as §1, §2, §3

T1 sequence (P43220 24-463): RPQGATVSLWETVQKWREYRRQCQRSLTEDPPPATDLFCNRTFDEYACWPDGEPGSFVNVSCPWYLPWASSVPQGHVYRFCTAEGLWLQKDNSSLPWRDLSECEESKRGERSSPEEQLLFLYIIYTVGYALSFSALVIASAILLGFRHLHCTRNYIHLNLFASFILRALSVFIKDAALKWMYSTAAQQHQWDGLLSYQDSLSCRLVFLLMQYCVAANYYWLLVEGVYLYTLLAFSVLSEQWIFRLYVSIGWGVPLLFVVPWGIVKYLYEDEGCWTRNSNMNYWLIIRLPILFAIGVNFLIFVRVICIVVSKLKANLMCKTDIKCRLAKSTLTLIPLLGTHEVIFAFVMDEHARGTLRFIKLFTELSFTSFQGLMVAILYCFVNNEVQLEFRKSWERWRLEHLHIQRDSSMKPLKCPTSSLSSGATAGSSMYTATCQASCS
T2 sequence (P47871 26-477): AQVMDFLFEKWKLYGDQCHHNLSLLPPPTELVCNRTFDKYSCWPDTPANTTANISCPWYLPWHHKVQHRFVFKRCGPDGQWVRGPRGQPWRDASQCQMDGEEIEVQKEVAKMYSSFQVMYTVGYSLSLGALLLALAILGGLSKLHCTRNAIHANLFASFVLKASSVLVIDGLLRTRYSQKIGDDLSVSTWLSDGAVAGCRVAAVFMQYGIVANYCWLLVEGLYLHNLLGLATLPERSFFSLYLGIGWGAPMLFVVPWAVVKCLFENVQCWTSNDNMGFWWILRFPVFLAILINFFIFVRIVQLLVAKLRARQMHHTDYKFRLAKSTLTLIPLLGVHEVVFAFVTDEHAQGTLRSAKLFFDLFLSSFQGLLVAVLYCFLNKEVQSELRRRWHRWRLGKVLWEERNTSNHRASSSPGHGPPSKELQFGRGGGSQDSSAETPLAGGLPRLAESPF

EC50 [1] | EC50 (human GLP-1-R) | EC50 (human Glucagon-R) | Compound | lipolysis potency relative to OXM [1] | body weight gain versus vehicle group (diet induced obese mice; 2-way ANOVA, p<0.05) | body weight gain (diet induced obese mice; compared with chow-fed controls) | Stimulation of lipolysis EC50 [1] | Stimulation of lipolysis EC50 ([1]; listed as exendin-4)
57 nM | 0.1 nM | – | H-HSQGTFTSDYSKYLDRARADDFVEWLKST-NH2 [ZP2649] | – | – | – | – | –
137 nM | – | – | H-HSQGTFTSDYSKYLDRARADDFVAWLKST-NH2 [ZP2495] | equipotent with OXM | statistically significantly less than observed in the vehicle group | decreased body weight gain to a level similar to that observed with chow feeding | – | –
326 nM | 0.8 nM | 0.5 nM | CC(C)C[C@H](NC(=O)[C@H](Cc1c[nH]c2ccccc12)NC(=O)[C@H](C)NC(=O)[C@@H](NC(=O)[C@H](Cc1ccccc1)NC(=O)[C@H](CC(=O)O)NC(=O)[C@H](CC(=O)O)NC(=O)[C@H](C)NC(=O)[C@H](CCCNC(=N)N)NC(=O)[C@H](C)NC(=O)[C@H](CCCNC(=N)N)NC(=O)[C@H](CC(=O)O)NC(=O)[C@H](CC(C)C)NC(=O)[C@H](Cc1ccc(O)cc1)NC(=O)[C@H](CCCCN)NC(=O)[C@H](CO)NC(=O)[C@H](Cc1ccc(O)cc1)NC(=O)[C@H](CC(=O)O)NC(=O)[C@H](CO)NC(=O)[C@@H](NC(=O)[C@H](Cc1ccccc1)NC(=O)[C@@H](NC(=O)CNC(=O)[C@H](CCC(N)=O)NC(=O)[C@@H](CO)NC(=O)[C@@H](N)Cc1c[nH]cn1)[C@@H](C)O)[C@@H](C)O)C(C)C)C(=O)N[C@@H](CCCCN)C(=O)N[C@@H](CO)C(=O)N[C@H](C(N)=O)[C@@H](C)O [ZP2654] (H-H[dS]QGTFTSDYSKYLDRARADDFVAWLKST-NH2) | – | – | – | – | –
93 nM | 0.2 nM | 0.2 nM | H-HSQGTFTSDYSKYLDRARADDFVAWLKEA-NH2 [ZP2635] | – | – | – | – | –
127 nM | 0.2 nM | 0.5 nM | H-HSQGTFTSDYSKYLDRARADDFVAWLKSA-NH2 [ZP2634] | equipotent with OXM | – | – | – | –
– | – | – | Exendin-4 [reference compound] | – | – | – | No effect | no effect
42 nM | 0.1 nM | 0.2 nM | H-HSQGTFTSDYSKYLDRARAEDFVAWLKST-NH2 [ZP2637] | – | – | – | – | –
26 nM | 0.1 nM | 0.2 nM | H-HSQGTFTSDYSKYLDRARAHDFVAWLKST-NH2 [ZP2648] | – | – | – | – | –
15 nM | 0.8 nM | – | H-HSQGTFTSDYSKYLDRARADDFVAWLERA-NH2 [ZP2650] | – | – | – | – | –
